Our source for the IC50 and Number of writhes values is patent EP4775574A1, “FURAN RING-CONTAINING COMPOUND, PHARMACEUTICAL COMPOSITION THEREOF, AND USE THEREOF” (Wuhan Xirui Pharmaceutical Technology Co., Ltd, priority 2023, dated 2025).

A word on the pIC50: it is the IC50 on a negative log10 scale, so that one unit is a factor of ten.

One experiment has as its target T1, hNav1.8 (Homo sapiens, UniProt Q9Y5Y9).
T1 construct: host or cells: HEK293
The experiment is described as follows: Manual patch-clamp IC50 on hNav1.8 channel current (HEK293 hNav1.8/β3). Type of experiment: cell-based. To be noted: HEK293 stably expressing hNav1.8/β3, n = 2, read-out: Inhibitory activity (IC50). As to the method:
This experiment was performed by detecting the influence of 5 concentrations of the compound or a single point or two concentration points on the hNav1.8 channel current, the dose-response curve of the compound was obtained, and the IC50 was calculated. This experiment was conducted to include two parallel sample determinations.
• 1) Cells: The HEK293 cell line that stably expressed the hNav1.8/β3 ion channel was prepared in-house by the Biology Department of Pharmaron (Beijing) Co., Ltd. (The lentiviral vectors that respectively expressed human Nav1.8 and β3 were transduced into HEK293, and it was prepared after screening. Specific reference: Proc Natl Acad Sci U S A. 2022 Jul 26;119(30):e2208211119. doi: 10.1073/pnas.2208211119. and the Cell Lines / BSYS CHO NaV1.8/β3 Cell Line manual.). The cell line was cultured in a medium containing 90% DMEM, 10% fetal bovine serum, 100 U/mL penicillin-streptomycin solution, 0.75 µg/mL puromycin, and 100 µg/mL hygromycin. When the cell density had grown to 40% to 80% of the bottom area of the culture dish, digestion was performed with trypsin, and passage was carried out three times per week. […]

The test system of experiment [1] is KM mouse acetic acid-induced writhing model. The experiment is described as follows: Analgesic efficacy in mouse acetic acid-induced writhing model. Type of experiment: in vivo, KM mice. To be noted: single dose, writhes within 20 min, p < 0.05 vs solvent control. As to the method: 1. Objective: The analgesic efficacy of the example was evaluated in a KM mouse acetic acid-induced writhing model. 2. Experimental methods: 2.1 Experimental drugs: The compounds in examples of the present disclosure and reference compound were self-prepared. […] It was prepared using a solvent (Tween 80 + 0.5% MC (v:v = 1:99 pH = 3)). 2.2 Experimental animals: Male KM mice were purchased from Hubei Provincial Center for Disease Control and Prevention (Hubei Provincial Academy of Preventive Medicine), weighing 20 to 25 g at the time of purchase. 2.3 Experimental grouping: Table 6: Efficacy test grouping of compounds in the acetic acid-induced writhing model
2.5 Data collection and analysis • Data were collected using Excel software. • Data were analyzed using Prism (Graph pad software, Inc.) software. 3.

[2] abbreviates: 30 mg/kg intragastric, second group set (solvent control 20.11 ± 3.55).
The mark [3] stands for this setting: 100 mg/kg intragastric, second group set (solvent control 20.11 ± 3.55).

pIC50: −log10 of the molar value.

T1 sequence (Q9Y5Y9 whole entry): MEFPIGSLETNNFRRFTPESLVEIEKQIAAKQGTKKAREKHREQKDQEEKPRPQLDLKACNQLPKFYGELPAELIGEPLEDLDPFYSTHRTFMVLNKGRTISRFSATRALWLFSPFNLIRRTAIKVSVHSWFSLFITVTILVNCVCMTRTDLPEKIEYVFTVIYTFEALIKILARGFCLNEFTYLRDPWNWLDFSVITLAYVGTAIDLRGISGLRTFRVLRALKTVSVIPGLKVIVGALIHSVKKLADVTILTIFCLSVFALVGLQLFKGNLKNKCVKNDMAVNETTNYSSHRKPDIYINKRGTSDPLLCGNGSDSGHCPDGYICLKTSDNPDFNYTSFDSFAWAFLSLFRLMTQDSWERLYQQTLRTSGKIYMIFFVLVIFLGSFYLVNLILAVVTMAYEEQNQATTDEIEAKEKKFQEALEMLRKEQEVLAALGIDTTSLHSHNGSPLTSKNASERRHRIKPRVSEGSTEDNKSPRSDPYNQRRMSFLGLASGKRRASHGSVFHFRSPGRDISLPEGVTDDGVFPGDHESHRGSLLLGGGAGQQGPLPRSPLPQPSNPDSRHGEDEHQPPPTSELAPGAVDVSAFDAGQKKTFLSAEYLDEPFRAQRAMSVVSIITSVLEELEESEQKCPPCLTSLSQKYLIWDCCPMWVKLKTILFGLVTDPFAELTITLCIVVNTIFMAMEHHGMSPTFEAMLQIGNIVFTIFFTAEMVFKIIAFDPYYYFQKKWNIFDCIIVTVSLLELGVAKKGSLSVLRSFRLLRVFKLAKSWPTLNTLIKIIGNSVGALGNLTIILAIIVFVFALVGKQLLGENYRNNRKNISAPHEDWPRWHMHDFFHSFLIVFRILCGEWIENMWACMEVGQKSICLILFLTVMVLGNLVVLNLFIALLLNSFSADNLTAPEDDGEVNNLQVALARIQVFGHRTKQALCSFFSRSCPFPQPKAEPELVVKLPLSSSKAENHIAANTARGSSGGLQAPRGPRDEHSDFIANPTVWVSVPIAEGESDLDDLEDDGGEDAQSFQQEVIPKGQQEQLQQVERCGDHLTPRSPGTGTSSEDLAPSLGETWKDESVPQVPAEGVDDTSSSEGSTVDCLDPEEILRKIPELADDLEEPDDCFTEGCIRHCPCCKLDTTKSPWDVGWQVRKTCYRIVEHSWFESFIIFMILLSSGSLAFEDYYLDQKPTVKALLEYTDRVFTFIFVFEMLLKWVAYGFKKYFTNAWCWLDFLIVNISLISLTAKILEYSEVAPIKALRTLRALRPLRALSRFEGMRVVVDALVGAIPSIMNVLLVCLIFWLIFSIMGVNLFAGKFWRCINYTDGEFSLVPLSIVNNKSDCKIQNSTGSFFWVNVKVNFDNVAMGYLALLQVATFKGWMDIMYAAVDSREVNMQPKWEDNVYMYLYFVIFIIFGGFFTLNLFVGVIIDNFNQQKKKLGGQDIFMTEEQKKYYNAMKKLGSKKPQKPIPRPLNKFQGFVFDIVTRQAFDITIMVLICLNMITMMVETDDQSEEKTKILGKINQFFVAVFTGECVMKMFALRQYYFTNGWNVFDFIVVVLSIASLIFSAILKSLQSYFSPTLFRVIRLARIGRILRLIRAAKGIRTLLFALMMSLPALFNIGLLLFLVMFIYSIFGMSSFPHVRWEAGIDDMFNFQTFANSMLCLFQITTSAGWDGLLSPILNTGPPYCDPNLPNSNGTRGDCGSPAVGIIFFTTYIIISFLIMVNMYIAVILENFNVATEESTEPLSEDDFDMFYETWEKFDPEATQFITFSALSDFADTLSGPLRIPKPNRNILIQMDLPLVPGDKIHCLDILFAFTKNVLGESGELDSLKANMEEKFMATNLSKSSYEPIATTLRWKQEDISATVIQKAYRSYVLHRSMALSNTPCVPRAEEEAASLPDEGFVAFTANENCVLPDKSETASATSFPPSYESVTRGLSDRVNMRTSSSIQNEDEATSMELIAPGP
T1 sequence (Q9NY72 25-215 partner limits assumed): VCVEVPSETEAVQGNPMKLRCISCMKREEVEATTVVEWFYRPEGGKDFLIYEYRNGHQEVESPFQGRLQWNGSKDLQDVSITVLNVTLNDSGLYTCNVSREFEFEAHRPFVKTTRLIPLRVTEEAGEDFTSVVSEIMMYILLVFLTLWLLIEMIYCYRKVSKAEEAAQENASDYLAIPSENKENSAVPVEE

Turning to `COc1c([C@H]2[C@H](C(=O)Nc3ccnc(C(N)=O)c3)O[C@@](C)(C(F)(F)F)[C@H]2C)ccc(F)c1F` [Reference compound, reference compound], on hNav1.8, the pIC50 is 9.53. Also, the figures for the Number of writhes in experiment [1] (setting [2]) and in experiment [1] (setting [3]) were 11.86 ± 3.53 and 10.13 ± 3.64, respectively.

In experiment [1] (30 mg/kg intragastric, first group set (solvent control 16.11 ± 5.84)), `COCCOc1c([C@H]2[C@H](C(=O)Nc3ccc(F)c(C(=N)NO)c3)O[C@@](C)(C(F)(F)F)[C@H]2C)ccc(F)c1F` [Example 10] had a Number of writhes of 12.10 ± 6.10.

Take `C[C@H]1[C@@H](c2ccc(F)c(F)c2OC2COC2)[C@H](C(=O)Nc2ccc(F)c(C(=N)NO)c2)O[C@@]1(C)C(F)(F)F` [Example 11]: at hNav1.8, the pIC50 is 9.64. Moreover, the results for the Number of writhes in experiment [1] (setting [2]) and in experiment [1] (setting [3]) were 11.56 ± 5.15 and 8.38 ± 6.12, respectively.
